Here are results for five compounds from patent publication US20210246164A1, “PEPTIDIC PROTEIN KINASE C INHIBITORS AND USES THEREOF” (UNIVERSITE DE GENEVE, priority 2016, published 2021).

Usually viability stands for a read-out of living cells in per cent, often relative to untreated cells.

Where a SMILES comes first, the peptide text is derived from it. Where no end group is shown, it is not given here. The star is where a group is joined. Myristoyl = CCCCCCCCCCCCCC(=O)*

A short description of one series: in vitro. Particulars: human, Caco-2 cells.
For series [1], the system named is primary human nasal epithelial cell monolayers. As to the kind of experiment: Permeabilization of fluorescein-conjugated dextran (FD) across nasal epithelial monolayers (cumulative release, Papp). It counts as cell-based. The note with it: 150 minutes; for permeability of fluorescein conjugated dextran of 4 kDa (cumulative release): peptide 10 μM apical, vs control. As for the experimental part: (§1) To assess the potential effects of peptides of the invention on the permeabilization of therapeutic molecules, fluorescein-conjugated dextrans (FD) were used to as a model for assessing paracellular drug transport (apical to basolateral) across the epithelial monolayer.
(§2) To ensure that the integrity of the monolayer was maintained during the course of the experiment, trans-epithelial electrical resistance (TEER) was measured before and after these studies, as described below.
(§3) Mucilair™ human primary nasal and bronchial epithelial cells (Epithelix sarl, Geneva, Switzerland) were used (Huang et. al., 2013, Toxicol. in Vitro 27: 1151-1156).
(§4) Before each experiment, the culture medium was removed from each compartment and the monolayer was washed once with 200 μl of saline (0.9%) and once with warm Hanks' Balanced Salt Solution (HBSS) (37° C.). In the basolateral compartment, 600 μL of pre-warmed HBSS was placed and the cells were returned to the incubator at 37° C. for 30 minutes to equilibrate. After equilibration, the peptides of the invention were applied to the apical side of an epithelial monolayer 5 minutes prior to the addition of FD solution. Peptide 1 according to the invention (P1 of SEQ ID NO: 2) was tested in comparison with comparative peptides C1 (SEQ ID NO: 4) and C2 (SEQ ID NO: 5). FD having a molecular weight (MW) of 4 and 150 kDa were used.
(§5) All peptides were used at a final concentration of 10 μM. The vehicle was used as a control (CTRL). The FD solution was added to the apical compartment to make a final volume of 200 μl. Samples of 100 μL were taken from the basal compartment of each well every 30 minutes over a period of 150 minutes, with each volume being replaced with equal amount of fresh warm buffer to maintain sink condition. The fluorescence of FD was measured in black 96-well plates using a fluorescence plate reader (BioTek Synergy Mx plate reader, BioTek Instruments GmbH, Lucerne, Switzerland), using excitation and emission wavelengths of 485 and 520 nm, respectively. Cumulative release (ng) corresponds to the actual amount of drug released cumulatively and corresponds to the amount in the suspension medium at any time plus the amount of the drug lost during each sampling.
(§6) Trans-epithelial electrical resistance (TEER): After addition of 200 μl of culture medium to the apical compartment of the tissue cultures, resistance was measured across cultures with an EVOMX volt-ohm-meter (World Precision Instruments UK, Stevenage) in triplicate for each time point. The TEER values (Ω) were converted normalized by using the following formula: TEER (Ωcm^2)=(resistance value (Ω)−100 (Ω))×0.33 (cm^2), where 100Ω is the resistance of the membrane and 0.33 cm^2 is the total surface of the epithelium.
(§7) To assess the role of the membrane penetrating group (myristoyl) in peptides of the invention in the enhancing of the permeability of macromolecules through epithelial cell layers, the permeabilizing capacity of peptide P1 of the invention was compared to a comparative peptide C3 (SEQ ID NO: 6) corresponding to the same peptide without the myristoyl group. The permeabilizing capacity of a peptide P2 (SEQ ID NO: 3) of the invention was also assessed. Uptake experiments and TEER were conducted as described in Example 2.
(§8) To assess the duration of the permeabilization effect of the peptide of the invention, apparent permeability of peptides of various lengths was evaluated as follows. Apparent permeability refers to the amount of released FD at that time point when the sample is collected.
(§9) The tested Peptides, uptake experiments and TEER were as described in Example 2.
(§10) Apparent permeability of FD: The apparent permeability (Papp) of FD was calculated using equation 1: Papp=(dQ/dt)/A*C0 (1)

The subject of series [2] is primary human bronchial epithelial cell monolayers. In words: Permeabilization of fluorescein-conjugated dextran (FD) across bronchial epithelial monolayers (cumulative release, Papp). It counts as cell-based. The note with it: 150 minutes; for permeability of fluorescein conjugated dextran of 4 kDa (cumulative release): peptide 10 μM apical, vs control. As for the experimental part: as §1, §2, §3, §4, §5, §6, §7, §8, §9, §10

Series [3] concerns non-small cell lung cancer (NSCLC). The note with it: compared to chemotherapies; cited from earlier work.

Experimental for in vitro: Viability of Caco-2 cells (human intestinal epithelial cell line) was determined by a cell proliferation assay using WST-1 based colorimetric assay. […] WST-1 reagent (diluted 1:10 in cell culture medium) was added as described in the instruction manual (Roche Diagnostics GMBH, Mannheim, Germany). Following 1-3 h incubation at 37° C. with the peptides or controls, absorbance at 450 nm (reference at 690 nm) was measured by a BioTek Synergy Mx plate reader. Percentage of cell viability was calculated based on the absorbance measured relative to that of cells exposed to only culture medium (control group). Sodium dodecyl sulfate (SDS) at 2% was used as a positive control for cell toxicity.

In the series “in vitro”, `CCCCCCCCCCCCCC(=O)N[C@@H](CO)C(=O)N[C@H](C(=O)N[C@@H](Cc1ccc(O)cc1)C(=O)N[C@@H](CCCNC(=N)N)C(=O)N[C@@H](CCCNC(=N)N)C(=O)NCC(=O)N[C@@H](C)C(=O)N[C@@H](CCCNC(=N)N)C(=O)N[C@@H](CCCNC(=N)N)C(=O)N[C@@H](Cc1c[nH]c2ccccc12)C(=O)N[C@@H](CCCNC(=N)N)C(=O)N[C@@H](CCCCN)C(=O)N[C@@H](CC(C)C)C(=O)O)[C@@H](C)CC` [Peptide C1, reference compound] (Myristoyl-SIYRRGARRWRKL-OH; C-terminus assumed) yielded a viability at 24 h, 50 µM of 55.2% and a viability at 24 h, 100 µM of 34%. Further, in series [1] (peptide 10 μM), the “reversibility of permeabilization of FD 4 kDa (decrease in Papp overtime)” value is listed as “reversible”. Also, the “reversibility of permeabilization of FD 4 kDa (decrease in Papp overtime)” value in series [2] (peptide 10 μM) was “reversible”.

For the compound `COc1cc2ncnc(Nc3ccc(F)c(Cl)c3)c2cc1OCCCN1CCOCC1` [gefitinib, N-(3-Chloro-4-fluorophenyl)-7-methoxy-6-(3-morpholinopropoxy) quinazolin-4-amine], the “progression free survival (PFS)” value in series [3] is recorded as 7.7-12.9 months.

For the compound “ARRWR (not fully specified (N-terminus)) [Peptide C3, same peptide as P1 without the myristoyl group, reference compound]”, the “permeability of fluorescein conjugated dextran of 4 kDa (cumulative release)” value (“permeability” for short) in series [1] and in series [2] was “did not show significant difference in permeabilization ability compared to the negative control” in each case.

Turning to “Myr-AKRWR (Myristoyl-AKRWR) [Peptide P2]”, in series [1], the “permeability” value is on record as “increased the permeability of the fluorescein conjugated dextran of 4 kDa in a significant manner”.

For the compound “N-acetyl-ARR [Peptide C2, reference compound]”, the “permeability” value in series [1] and in series [2] was “not differing from control” each time.
